Data set [1] can be described thus: Electron spin resonance (ESR) measurement test, amount of tyrosine radical. The following applies: 5 μM, 50 μM and 500 μM added to standard solution; activity order R<DR<DHR. It is filed as biochemical. The method, then: (§1) Resveratrol (R), as well as dimethyl resveratrol (DR) and dimethylhydroxy resveratrol (DHR), which are compounds of the present invention, were added to radicals serving as standard substances, and the amounts of remaining tyrosine radicals and hydroxyl radicals were assessed. Specifically, a standard solution comprising a 50 mM NaPi buffer (pH 7.4), 10 mM DMPO, 1.6 mM myoglobin, and 1 mM H2O2 was prepared using myoglobin as a tyrosine radical. Further, a standard solution comprising a 50 mM NaPi buffer (pH 7.4), 10 mM DMPO, 0.1 mM Fe^2+-EDTA, and 1 mM H2O2 was prepared using Fe^2+-EDTA as a hydroxyl radical. […] The ESR was set as follows: microwave power: 10 mW; adjusted frequency: 100 KHz; adjusted magnetic field: 0.1 G; receiver gain: 1000; and time constant: 0.3 s. FIGS. 1(A) and 1(B) show the results.

Data set [2] is described as follows: Electron spin resonance (ESR) measurement test, amount of hydroxyl radical. It is filed as biochemical. The following applies: 5 μM, 50 μM and 500 μM added to standard solution; activity order R<DR<DHR. The method, then: as §1
A further data set deals with crystalline lens. Kind of data set: Smoking rat presbyopia model (Example 3): crystalline lens hardness. The class given is in vivo, Sprague-Dawley rats. The following applies: smoking rats, 300 μM PBS solution, 5 μL instilled 4 times per day for 11 days; smoking group 1.04±0.05, non-smoking 0.75±0.04. The method, then: Six-week-old male Sprague-Dawley rats were subjected to smoking treatment to develop dry-eye, presbyopia models. Specifically, a treatment in which mainstream smoke (300 mL) was added to a rat-containing chamber 6 times at 30-minute intervals was performed for 12 days to induce keratoconjunctival epithelial damage. […] Each group consisted of 4 animals (8 eyes). After the 11-day smoking treatment, the body weight, tear volume, fluorescent staining score, and crystalline lens hardness were measured. • 0: not stained (no punctate fluorescence) • 1: weak punctate fluorescence • 2: relatively intense punctate fluorescence • 3: strong punctate fluorescence The crystalline lens hardness was measured by combining an electronic weighing scale and height gauge. A crystalline lens whose minor axis length had been previously measured was placed on an electronic weighing scale, and the weight was set to 0. The handle of a height gauge was used above the crystalline lens to allow the end portion to be in contact with the crystalline lens. Further using the handle, the end portion was lowered about 5 to 10% of the minor axis length to apply a pressure on the crystalline lens. The change in the weight at this time was measured with the electronic weighing scale, and the weight was divided by the moving distance measured with the height gauge. The resulting value was considered to be hardness. A larger value represents more hardness. For statistical analysis of the body weight, tear volume, and crystalline lens hardness, a significant difference test was performed using the Dunnett method in terms of each group with respect to the smoking group.

Data set [3] deals with keratoconjunctival epithelial damage caused by dry eye. In words: Therapeutic efficacy test using smoking rat (Example 3): tear volume and fluorescein staining score. It is filed as in vivo, Sprague-Dawley rats. Conditions: smoking rats, 300 μM PBS solution, 5 μL instilled 4 times per day for 11 days. The method, then:
In this experiment, both eyes of each animal were used. The same drug solution was administered to both eyes of each animal, and a comparison was made among groups.
Six-week-old male Sprague-Dawley rats were subjected to smoking treatment to develop dry-eye, presbyopia models.
Specifically, a treatment in which mainstream smoke (300 mL) was added to a rat-containing chamber 6 times at 30-minute intervals was performed for 12 days to induce keratoconjunctival epithelial damage. […] Each group consisted of 4 animals (8 eyes).
After the 11-day smoking treatment, the body weight, tear volume, fluorescent staining score, and crystalline lens hardness were measured.
To determine the tear volume, tears accumulated in the cornea of rat were measured in accordance with the cotton thread test. Specifically, after the rats were anesthetized with ocular instillation of oxybuprocaine hydrochloride, a cotton thread was inserted between the palpebra and eyeball for 60 seconds, and tears were collected. The tear volume was assessed by measuring the length (mm) of the wet portion in the cotton thread.
After the completion of ocular instillation, a damaged portion in corneal epithelium was stained with a fluorescent dye (fluorescein). Then, the degree of corneal epithelial damage was assessed based on the following criteria by scoring each section of the entire cornea, which was divided into a total of 9 sections, i.e., upper, middle, and lower, and left, center, and right sections, and calculating the total value. Thereafter, the score values were compared among the groups for analysis. For statistical analysis, a significant difference test was performed by using the Dunnett method in terms of each group with respect to the smoking group. For unbiased evaluation, the content of the drug solution administered to each group was blinded from the initiation of ocular instillation to the scoring of the corneal epithelial damage, and collated after scoring.
Evaluation Criteria for Scoring of Fluorescein Staining of Corneal Epithelium
• 0: not stained (no punctate fluorescence) • 1: weak punctate fluorescence • 2: relatively intense punctate fluorescence • 3: strong punctate fluorescence The crystalline lens hardness was measured by combining an electronic weighing scale and height gauge. A crystalline lens whose minor axis length had been previously measured was placed on an electronic weighing scale, and the weight was set to 0. The handle of a height gauge was used above the crystalline lens to allow the end portion to be in contact with the crystalline lens. Further using the handle, the end portion was lowered about 5 to 10% of the minor axis length to apply a pressure on the crystalline lens. The change in the weight at this time was measured with the electronic weighing scale, and the weight was divided by the moving distance measured with the height gauge. The resulting value was considered to be hardness. A larger value represents more hardness.
For statistical analysis of the body weight, tear volume, and crystalline lens hardness, a significant difference test was performed using the Dunnett method in terms of each group with respect to the smoking group.

In another data set the test system is corneal epithelium. Kind of data set: Safety test: hematoxylin-eosin staining of rat cornea. The class given is in vivo. The following applies: 300 μM PBS solution, treated for one week. The source says: FIGS. 8(A) and 8(B) show photographs of each tissue section.
The nature of data set [4]: Stability test at 25° C. and 60% RH, amount by HPLC. It is filed as physicochemical. The procedure:
After a constant period of time, the amount of each compound was measured by HPLC to evaluate the stability. The amount of the compound was calculated in accordance with: (The amount of compound after a constant period of time)/(the amount of compound at the time when the test was initiated)×100(%).

The nature of data set [5]: Measurement of radical scavenging activity (galvinoxyl radical, stopped flow method). The class given is biochemical. Conditions: acetonitrile, deaerated with argon, absorbance at 428 nm.
Experimental: Unlike active oxygen, a galvinoxyl radical (GO•), which is a relatively stable organic oxygen radical having a characteristic peak absorption at 428 nm, may be used to perform kinetic analysis in terms of the radical scavenging ability of antioxidants using ultraviolet visible spectroscopy.
In this experiment, the radical scavenging rate was measured by a stopped flow method. The following reagent was used: • Acetonitrile (Nacalai Tesque, Inc., 00433-95); and • Galvinoxyl Radical (Aldrich, G30-7).
A solution of GO• in acetonitrile (about 2.4×10^−6 M) was bubbled with argon for 7 minutes to remove molecular oxygen. […] Subsequently, the acetonitrile solutions of GO• and the compounds were simultaneously mixed to measure changes in the peak absorption of GO• (at 428 nm) over time by a stopped flow method.
Under conditions in which the concentration of each antioxidant is 10 times or more than that of GO• ([Antioxidant agent]>10[GO•]), the reduction in the absorbance at 428 nm derived from GO• follows the pseudo-first-order kinetics (equation (1)) with respect to the concentration of each antioxidant agent (antioxidant): −d[GO•]/dt=kobs[GO•] […] Integration of both sides of equation (1) leads to equation (2): ln([GO•]/[GO•]0)=−kobst (2), wherein [GO•]o is a concentration of GO• when t=0. […]
Data set [6] relates to keratoconjunctival epithelial damage caused by dry eye. Kind of data set: Therapeutic efficacy test using smoking rat (Example 5), comparison with Diquas. It is filed as in vivo, Sprague-Dawley rats. The method, then: In this experiment, both eyes of each animal were used. The same drug solution was administered to both eyes of each animal, and a comparison was made among groups. Six-week-old male Sprague-Dawley rats were subjected to smoking treatment to develop dry-eye models. Specifically, a treatment in which mainstream smoke (300 mL) was added to a rat-containing chamber 6 times at 30-minute intervals was performed for 12 days to induce a keratoconjunctival epithelial damage. […] The tear volume and fluorescent staining score were measured in accordance with the method described in Example 3. For statistical analysis, a significant difference test was performed using the Dunnett method in terms of each group with respect to the smoking group.

SMILES strings stand for the structures.

With `C/C(=C(/C)c1cc(O)cc(O)c1)c1ccc(O)cc1` [DR, (E)-5-[3-(4-hydroxyphenyl)but-2-en-2-yl]benzene-1,3-diol], the “radical generation (amount of tyrosine radical, ESR)” value in data set [1] is “reduced radical generation in a concentration-dependent manner”. In data set [2], the “radical generation (amount of hydroxyl radical, ESR)” value is “reduced radical generation in a concentration-dependent manner”. The “crystalline lens elasticity (hardness; larger value = harder)” value with crystalline lens came out at 0.86±0.06. In addition, the “average fluorescein score (fluorescent staining score)” value in data set [3] (smoking group 3.7±1.0, non-smoking 0.8±1.0) stood at 2.3±0.5; in data set [6] (smoking rats, DR 300 μM in PBS or Diquas 3%, 5 μL 4 times per day for 11 days, smoking group 4.6±1.2, non-smoking 1.2±1.2), 2.1±0.8. Further, the “tear volume (cotton thread test, length of wet portion)” value in data set [3] (smoking group 10.0±5.0, non-smoking 14.0±9.1) was found to be 8.3±4.9 mm. Also, the “morphological effects on the corneal epithelium (HE staining)” value in the data set with corneal epithelium was “did not show morphological effects on the corneal epithelium”. Besides, the “amount of compound remaining, average” value in data set [4] (168 h) turned out to be 99%; in data set [4] (336 h) it was 98%; in data set [4] (504 h) it was 96%; in data set [4] (672 h), 94%; in data set [4] (buffer, 24 h, 10 mM), 99%; in data set [4] (buffer, 48 h, 10 mM) it was 96%. Further, the “amount of compound remaining, average” value came out at 94% in data set [4] (buffer, 72 h, 10 mM); 88% in data set [4] (buffer, 168 h, 10 mM); 76% in data set [4] (buffer, 336 h, 10 mM). Besides, the “radical scavenging activity (constant kHT of rate of hydrogen transfer to GO•)” value in data set [5] was 0.96 M⁻¹ s⁻¹. For the same compound, the body weight in data set [6] (smoking rats after 11-day treatment, instilled 5 μL 4 times per day, smoking group 280.0±5.8) was determined as 271.0 ± 7.5 g. Further, the “tear volume (cotton thread test)” value in data set [6] (smoking rats, DR 300 μM in PBS or Diquas 3%, 5 μL 4 times per day for 11 days, smoking group 11.3±9.0, non-smoking 17.6±9.1) was 19.3±11.2 mm.

The values above are taken from patent US9968566B2, “Pharmaceutical composition for prophylaxis and/or treatment of corneal and conjunctival diseases or presbyopia containing stilbene compound as active ingredient” (KEIO UNIVERSITY, priority 2014, dated 2018).
